Experimental data: paper PMC5431883, “Enhancing Specific Disruption of Intracellular Protein Complexes by Hydrocarbon Stapled Peptides Using Lipid Based Delivery” (Scientific Reports, 2017)
Each block holds one compound with its values, some of them ahead of it. Positions of bridges follow the written chain, without caps; N, C: chain ends. Non-standard residues stand in square brackets, D forms with d. Residues, ends and D or L forms follow the SMILES beside them. R8 = C=CCCCCCC[C@@](C)(N)C(=O)O; Cba = N[C@@H](CC1CCC1)C(=O)O; S5 = C=CCCC[C@](C)(N)C(=O)O; Ahx = NCCCCCC(=O)O

What was measured:
Mdm2 (1-125) = biological target: T1, Mdm2 (1-125) (Homo sapiens, UniProt Q00987); assay: Mdm2 competitive fluorescence anisotropy assay (FAM-labeled 12/1 peptide displacement); type: binding; details: for Kd: read-out: Kd (apparent dissociation constant, competitive fluorescence anisotropy); for Kd (apparent dissociation constant, competitive fluorescence anisotropy): 250 nM MDM2
T1 construct: Purified MDM2 (1-125) protein was titrated against 50 nM carboxyfluorescein (FAM)-labeled; GST (N, cleaved yes); made in house; host or cells: E. coli BL21 DE3 (pGEX-6P-1)
T1 sequence (Q00987 1-125): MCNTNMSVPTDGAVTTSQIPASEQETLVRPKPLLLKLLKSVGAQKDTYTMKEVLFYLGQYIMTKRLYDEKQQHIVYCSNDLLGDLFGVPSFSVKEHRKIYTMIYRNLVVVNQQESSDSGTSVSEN
Experimental: analyzed with SDS page gel and concentrated using a Centricon (3.5 kDa MWCO) concentrator, Millipore. Mdm2 protein samples were then dialyzed into a buffer solution containing 20mM Bis-Tris, pH 6.5, 0.05M NaCl with 1mM DTT and loaded onto a monoS column pre-equilibrated in buffer A (20mM Bis-Tris, pH 6.5, 1mM DTT). The column was then washed in 6 column volumes of buffer A and bound protein was eluted with a linear gradient of 1M NaCL over 25 column volumes. Protein fractions were analyzed with SDS page gel and concentrated using a Centricon (3.5 kDa MWCO) concentrator, Millipore.
Protein concentration was determined using A280 using an extinction coefficients […]
Mdm2 Competitive Fluorescence Anisotropy Assay and Kd Determination […]
Dissociation constants for titration of MDM2 against […]
equation shown below:25,26
[P] is the protein concentration (MDM2), [L] is the labeled peptide concentration, r is the anisotropy measured, r0 is the anisotropy of the free peptide, rb is the anisotropy of the MDM2– FAM-labeled peptide complex, Kd is the dissociation constant, [L]t is the total FAM labeled
(1 picture or pasted object on this page, not shown here) […]
peptide concentration, and [P]t is the total MDM2 concentration. […]
respective competing ligands in subsequent competition assays.
Apparent Kd values were determined for a variety of molecules via competitive fluorescence anisotropy experiments. Titrations were carried out with the concentration of MDM2 held constant […]
The competing molecules were then titrated against the complex of the FAM-labeled peptide and protein. Apparent Kd values were determined by fitting the experimental data to the equations shown below:26,27 […]
[L]st and [L]t denote labeled ligand and total unlabeled ligand input concentrations, respectively.
Kd2 is the dissociation constant of the interaction between the unlabeled ligand and the protein. In […]
all competitive types of experiments, it is assumed that [P]t > [L]st, otherwise considerable amounts of free labeled ligand would always be present and would interfere with measurements. Kd1 is the […]
experimentally determined as described in the previous paragraph. The FAM-labeled peptide was dissolved in dimethyl sulfoxide (DMSO) at 1 mM and diluted into experimental buffer. Readings were carried out with an Envision Multilabel Reader (PerkinElmer). Experiments were carried out […]
Tween 20 buffer. All titrations were carried out in triplicate. Curve-fitting was carried out using […]
Negative control titrations of the ligands under investigation were also carried out with the fluorescently labeled peptide (in the absence of MDM2) to ensure no interactions were occurring between the ligands and FAM-labeled peptide. […]
which would otherwise indicate an unintended interaction between the ligand and the FAM-labeled peptide to be displaced from the MDM2 binding site. […]

HEK293 cells = assay: Lactate dehydrogenase (LDH) release assay in HEK293 cells; type: cell-based; details: 0% FCS, 2 hour treatment, 12.5, 25 and 50 µM, normalised to 0.1% Triton X100 (Figure S1)
Experimental: T22 cells or HEK 293 cells were seeded into a 96-well plate at a cell density of 5000 cells per well. Cells were maintained in Dulbecco’s Minimal Eagle Medium (DMEM) with 10% fetal bovine serum (FBS) and 1% (v/v) penicillin/streptomycin. The cells were incubated for 24 hours followed by cell media removal and addition of 90 µl of DMEM either with or without 10% FCS. Cells were then treated with compounds/peptide for 2 hours in DMEM with or without 10% FBS. Final working concentration of DMSO was 1% v/v. Corresponding negative control wells with 1% DMSO only were also prepared. Cytosolic lactate dehydrogenase release was detected using the cytoTox 96® non-radioactive cytotoxicity Assay kit (Promega) as per manufacturer’s instructions. Measurements were carried out using an Envision multiplate reader (Perkin-Elmer). Maximum LDH release was defined as the amount of LDH released when cells were lysed in the presence of 0.1% TRITON X-100 and was used to normalize the results. […]
to induce LDH release in HEK293 cells after a 2 hour treatment period in A) the absence of FCS and B) the presence of 10% FCS. Compounds were tested at concentrations of 12.5 µM, 25 µM and 50 µM. Results were normalized to maximal LDH release as measured by treatment with 0.1% Triton X100.
(1 picture or pasted object on this page, not shown here)

T22 cells = assay: Lactate dehydrogenase (LDH) release assay in T22 cells; type: cell-based, murine; details: for LDH Release (T22 Cells), 0% FCS (LDH50) / LDH Release (T22 Cells), 10% FCS (LDH50): 2 h treatment, normalised to 0.1% Triton X-100 lysis, 4 parameter fit to 10 point titration
Experimental: T22 cells or HEK 293 cells were seeded into a 96-well plate at a cell density of 5000 cells per well. Cells were maintained in Dulbecco’s Minimal Eagle Medium (DMEM) with 10% fetal bovine serum (FBS) and 1% (v/v) penicillin/streptomycin. The cells were incubated for 24 hours followed by cell media removal and addition of 90 µl of DMEM either with or without 10% FCS. Cells were then treated with compounds/peptide for 2 hours in DMEM with or without 10% FBS. Final working concentration of DMSO was 1% v/v. Corresponding negative control wells with 1% DMSO only were also prepared. Cytosolic lactate dehydrogenase release was detected using the cytoTox 96® non-radioactive cytotoxicity Assay kit (Promega) as per manufacturer’s instructions. Measurements were carried out using an Envision multiplate reader (Perkin-Elmer). Maximum LDH release was defined as the amount of LDH released when cells were lysed in the presence of 0.1% TRITON X-100 and was used to normalize the results.

T22 p53 reporter cells = assay: p53 gene reporter assay (β-galactosidase) in T22 cells; type: cell-based, murine; details: for P53 Activation (T22 Cells), 0% FCS (p53ACT50 / EC50) / P53 Activation (T22 Cells), 10% FCS (p53ACT50 / EC50): 18 h, 1% DMSO, normalised to 25 µM Nutlin, 4 parameter fit to 10 point titration
Experimental: T22 cells, which were stably transfected with a p53 responsive β-galactosidase reporter, were seeded into a 96-well plate at a cell density of 8000 cells per well. Cells were also maintained in Dulbecco’s Minimal Eagle Medium (DMEM) with 10% fetal calf serum (FCS) and 1% (v/v) penicillin/streptomycin. The cells were incubated for 24 hours and followed by cell media removal and replacement with 90 µl of fresh DMEM either containing 10% FCS or 0% FCS. 10 µl of each compound was then added directly to each well and incubated for 18 hours. Final working concentration of DMSO was 1% v/v. […] Measurements were carried out using an Envision multiplate reader (Perkin-Elmer). […] This was then used to normalize the experimental results.

Kd (Mdm2 (1-125)): 11.6 ± 1.2 nM
Structure (SMILES): CC(=O)N[C@@H](CCCCN)C(=O)N[C@@H](CCCCN)C(=O)N[C@@H](CCCCN)C(=O)NCCCCCC(=O)N[C@H](C(=O)N[C@@H](CO)C(=O)N[C@@H](Cc1ccccc1)C(=O)N[C@]1(C)CCCCCCC=CCCC[C@@](C)(C(=O)N[C@@H](CCC(=O)O)C(=O)N[C@@H](CC(N)=O)C(=O)N[C@@H](Cc2ccccc2)C(N)=O)NC(=O)[C@H](CC(C)C)NC(=O)[C@H](CC(C)C)NC(=O)[C@H](C)NC(=O)[C@H](Cc2c[nH]c3ccccc23)NC(=O)[C@H](Cc2ccc(O)cc2)NC(=O)[C@H](CCC(=O)O)NC1=O)[C@@H](C)O [VIP-115] (Ac-KKK[Ahx]TSF[R8]EYWALL[S5]ENF-NH2; staple 8-15)

Kd (Mdm2 (1-125)): 14 ± 1.1 nM
Structure (SMILES): CC(=O)N[C@H](C(=O)N[C@@H](CO)C(=O)N[C@@H](Cc1ccccc1)C(=O)N[C@]1(C)CCCCCCC=CCCC[C@@](C)(C(=O)N[C@@H](CCC(=O)O)C(N)=O)NC(=O)[C@H](CC2CCC2)NC(=O)[C@H](CC(C)C)NC(=O)[C@H](C)NC(=O)[C@H](Cc2c[nH]c3ccccc23)NC(=O)[C@H](Cc2ccc(O)cc2)NC(=O)[C@H](CCC(=O)O)NC1=O)[C@@H](C)O [VIP-71] (Ac-TSF[R8]EYWAL[Cba][S5]E-NH2; staple 4-11)

Kd (Mdm2 (1-125)): 45 ± 4.1 nM
Structure (SMILES): CC(=O)N[C@@H](CCCNC(=N)N)C(=O)N[C@@H](CCCNC(=N)N)C(=O)N[C@@H](CCCNC(=N)N)C(=O)NCCCCCC(=O)N[C@H](C(=O)N[C@@H](CO)C(=O)N[C@@H](Cc1ccccc1)C(=O)N[C@]1(C)CCCCCCC=CCCC[C@@](C)(C(=O)N[C@@H](CCC(=O)O)C(=O)N[C@@H](CC(N)=O)C(=O)N[C@@H](Cc2ccccc2)C(N)=O)NC(=O)[C@H](CC(C)C)NC(=O)[C@H](CC(C)C)NC(=O)[C@H](C)NC(=O)[C@H](Cc2c[nH]c3ccccc23)NC(=O)[C@H](Cc2ccc(O)cc2)NC(=O)[C@H](CCC(=O)O)NC1=O)[C@@H](C)O [VIP-80] (Ac-RRR[Ahx]TSF[R8]EYWALL[S5]ENF-NH2; staple 8-15)

Kd (Mdm2 (1-125)): 130 ± 11.7 nM
Structure (SMILES): CC(=O)N[C@@H](Cc1c[nH]cn1)C(=O)N[C@@H](Cc1c[nH]cn1)C(=O)N[C@@H](Cc1c[nH]cn1)C(=O)NCCCCCC(=O)N[C@H](C(=O)N[C@@H](CO)C(=O)N[C@@H](Cc1ccccc1)C(=O)N[C@]1(C)CCCCCCC=CCCC[C@@](C)(C(N)=O)NC(=O)[C@H](CC(C)C)NC(=O)[C@H](CC(C)C)NC(=O)[C@H](C)NC(=O)[C@H](Cc2c[nH]c3ccccc23)NC(=O)[C@H](Cc2ccc(O)cc2)NC(=O)[C@H](CCC(=O)O)NC1=O)[C@@H](C)O [VIP-79]

Kd (Mdm2 (1-125)): 44.9 ± 3.5 nM
Structure (SMILES): CC(=O)N[C@@H](CCCNC(=N)N)C(=O)N[C@@H](CCCNC(=N)N)C(=O)N[C@@H](CCCNC(=N)N)C(=O)NCCCCCC(=O)N[C@H](C(=O)N[C@@H](CO)C(=O)N[C@@H](Cc1ccccc1)C(=O)N[C@]1(C)CCCCCCC=CCCC[C@@](C)(C(=O)N[C@@H](CCC(=O)O)C(=O)N[C@@H](CC(N)=O)C(=O)N[C@@H](Cc2ccc(O)cc2)C(N)=O)NC(=O)[C@H](CC(C)C)NC(=O)[C@H](CC(C)C)NC(=O)[C@H](C)NC(=O)[C@H](Cc2c[nH]c3ccccc23)NC(=O)[C@H](Cc2ccc(O)cc2)NC(=O)[C@H](CCC(=O)O)NC1=O)[C@@H](C)O [VIP-85] (Ac-RRR[Ahx]TSF[R8]EYWALL[S5]ENY-NH2; staple 8-15)

More lines, now with the values behind:

Structure (SMILES): CC(=O)N[C@H](C(=O)N[C@@H](CO)C(=O)N[C@@H](CC(C)C)C(=O)N[C@]1(C)CCCCCCC=CCCC[C@@](C)(C(N)=O)NC(=O)[C@H](Cc2c[nH]c3ccccc23)NC(=O)[C@H](CC(C)C)NC(=O)[C@H](C)NC(=O)[C@H](Cc2ccccc2)NC(=O)[C@H](Cc2ccc(O)cc2)NC(=O)[C@H](CCC(=O)O)NC1=O)[C@@H](C)O [sMTIDE-02^SCRAM] (Ac-TSL[R8]EYFALW[S5]-NH2; staple 4-11)
binding against Mdm2 in the FA competition assay (in words) (Mdm2 (1-125)): no binding
LDH release in HEK293 cells, absence of serum (in words) (HEK293 cells): induced significant amounts of LDH release
LDH Release (T22 Cells), 0% FCS (LDH50) (T22 cells): 25.1 ± 2.8 µM
LDH Release (T22 Cells), 10% FCS (LDH50) (T22 cells): 105 ± 8.0 µM
P53 Activation (T22 Cells), 0% FCS (p53ACT50 / EC50) (T22 p53 reporter cells): No Activity
P53 Activation (T22 Cells), 10% FCS (p53ACT50 / EC50) (T22 p53 reporter cells): No Activity

Structure (SMILES): CC(=O)N[C@@H](CCCCN)C(=O)N[C@@H](CCCCN)C(=O)NCCCCCC(=O)N[C@H](C(=O)N[C@@H](CO)C(=O)N[C@@H](CC(C)C)C(=O)N[C@]1(C)CCCCCCC=CCCC[C@@](C)(C(=O)N[C@@H](CCC(=O)O)C(=O)N[C@@H](CC(N)=O)C(=O)N[C@@H](Cc2ccccc2)C(N)=O)NC(=O)[C@H](Cc2c[nH]c3ccccc23)NC(=O)[C@H](CC(C)C)NC(=O)[C@H](C)NC(=O)[C@H](Cc2ccccc2)NC(=O)[C@H](Cc2ccc(O)cc2)NC(=O)[C@H](CCC(=O)O)NC1=O)[C@@H](C)O [VIP-82^SCRAM] (Ac-KK[Ahx]TSL[R8]EYFALW[S5]ENF-NH2; staple 7-14)
binding against Mdm2 in the FA competition assay (in words) (Mdm2 (1-125)): no binding
LDH Release (T22 Cells), 0% FCS (LDH50) (T22 cells): No Release
LDH Release (T22 Cells), 10% FCS (LDH50) (T22 cells): No Release
LDH release, peptide formulated with SaintPhD (in words) (T22 cells; formulated with SaintPhD (Figure S2)): did not induce any p53 activity or LDH release
P53 Activation (T22 Cells), 0% FCS (p53ACT50 / EC50) (T22 p53 reporter cells): No Activity
P53 Activation (T22 Cells), 10% FCS (p53ACT50 / EC50) (T22 p53 reporter cells): No Activity
p53 activity, peptide formulated with SaintPhD (in words) (T22 p53 reporter cells; formulated with SaintPhD, conditions identical to VIP-82:SaintPhD (Figure S2)): did not induce any p53 activity or LDH release

Structure (SMILES): CC(=O)N[C@@H](CCCCN)C(=O)N[C@@H](CCCCN)C(=O)N[C@@H](CCCCN)C(=O)NCCCCCC(=O)N[C@H](C(=O)N[C@@H](CO)C(=O)N[C@@H](CC(C)C)C(=O)N[C@]1(C)CCCCCCC=CCCC[C@@](C)(C(=O)N[C@@H](CCC(=O)O)C(=O)N[C@@H](CC(N)=O)C(=O)N[C@@H](Cc2ccccc2)C(N)=O)NC(=O)[C@H](Cc2c[nH]c3ccccc23)NC(=O)[C@H](CC(C)C)NC(=O)[C@H](C)NC(=O)[C@H](Cc2ccccc2)NC(=O)[C@H](Cc2ccc(O)cc2)NC(=O)[C@H](CCC(=O)O)NC1=O)[C@@H](C)O [VIP-127 SCRAM] (Ac-KKK[Ahx]TSL[R8]EYFALW[S5]ENF-NH2; staple 8-15)
Kd (Mdm2 (1-125)): > 10000 nM
